Results taken from the NIST ThermoML archive (doi:10.1021/acs.jced.8b01044).
± gives the expanded uncertainty stated by the source.

Tests used:
[1] = Crystal; DSC
[2] = Molar enthalpy of transition or fusion; settings: Crystal; DSC

Row | Triple point temperature [1] | Molar enthalpy of transition or fusion [2] | SMILES
1 | 344.08 ± 0.93 K | 14.5 ± 0.86 kcal/mol | CCCCCCCCCCCCCCCCCC(=O)O [octadecanoic acid]
2 | 336.13 ± 0.93 K | 12.1 ± 0.765 kcal/mol | CCCCCCCCCCCCCCCC(=O)O [hexadecanoic acid]
3 | 317.71 ± 0.93 K | 8.54 ± 0.598 kcal/mol | CCCCCCCCCCCC(=O)O [dodecanoic acid]
